According to patent US9523109B2, “Method for enzymatically preparing peptides for use in improvement of brain function” (CALPIS CO., LTD., priority 2011, dated 2016):
Where no end group is shown, it is not given here.

Experiments:
[1] = system: scopolamine-induced amnesia; test: Y-shaped maze test (spontaneous alternation behavior) after scopolamine-induced brain dysfunction; type: in vivo, Male ddY mice; settings: scopolamine 1 mg/kg s.c.
Description: Male ddY mice (about 7 weeks old) were used (n=15 to 75), and provided with food and water ad libitum. Asn-Ile-Pro-Pro-Leu-Thr-Gln-Thr-Pro-Val-Val-Val-Pro-Pro-Phe-Leu-Gln-Pro-Glu (SEQ ID NO: 1) was used as a test substance in amounts of 0.05 nmol/kg body weight (0.1 μg/kg body weight), 0.5 nmol/kg body weight (1 μg/kg body weight), 1.5 nmol/kg body weight (3 μg/kg body weight), 5 nmol/kg body weight (10 μg/kg body weight), 50 nmol/kg body weight (100 μg/kg body weight), and 500 nmol/kg body weight (1,000 μg/kg body weight). The test substance was administered as a single dose orally to mice 60 minutes before performing a Y-shaped maze test for evaluating spontaneous alternation behavior. Thirty minutes before performing the Y-shaped maze test, scopolamine was subcutaneously administered in an amount of 1 mg/kg body weight into the back to induce brain dysfunction (memory disorder and/or cognition disorder) in mice. In the Y-shaped maze test, as an experiment device, a Y-shaped maze was used in which the length for each arm was 40 cm; the wall height was 12 cm; the floor width was 3 cm; the upper part width was 10 cm; and three arms were connected to each other at an angle of 120°. Each mouse was placed in the end of any of the alms of the Y-shaped maze and allowed to explore freely in the maze over 8 minutes, and the sequence of the arms to which the mouse moved was recorded. The number of movements of the mouse to the arms within the measurement time was counted and used as the total number of entries; in the sequence, the combination in which three different arms were selected in succession (for example, with the three arms respectively called A, B, and C, if the sequence of the arms entered is ABCBACACB, the count is 4 inclusive of overlapping) was investigated, and the count number was used as the number of spontaneous alternation behaviors. The change in spontaneous alternation behavior (%) was calculated by dividing the number of spontaneous alternation behaviors by a number obtained by subtracting 2 from the total number of entries, and multiplying the resultant number by 100, and the percentage was used as an indicator of the spontaneous alternation behavior. […] The measured values were expressed as mean±standard error for each group. The significance of difference between the control group and the scopolamine control group was tested by Student's t-test. […]
Male ddY mice (about 7 weeks old) were used (n=15 to 45), and provided with food and water ad libitum. […] Each mouse was placed in the end of any of the arms of the Y-shaped maze and allowed to explore freely in the maze over 8 minutes, and the sequence of the arms to which the mouse moved was recorded. […]

memory retention = test: novel object recognition test for evaluating memory retention; type: in vivo, Male ddY mice; settings: Example 6, FIG. 7; single oral dose 500 nmol/kg body weight (1,000 μg/kg) 60 min before training trial; retention trial 48 hours later
Description: Male ddY mice (about 7 weeks old) were used (n=14 to 15), and provided with food and water ad libitum. As a test substance, 500 nmol/kg body weight (1,000 μg/kg body weight) of Asn-Ile-Pro-Pro-Leu-Thr-Gln-Thr-Pro-Val-Val-Val-Pro-Pro-Phe-Leu-Gln-Pro-Glu (SEQ ID NO: 1) was used. The test substance was administered as a single dose orally to mice 60 minutes before performing a novel object recognition test for evaluating memory retention. In the novel object recognition test, a 30×30×30 cm box was used as an experiment device. As a conditioning operation, a mouse was placed in an experiment device in which a floorcloth was laid for 5 minutes, and allowed to explore freely in the device. A training trial was performed the day following the conditioning operation. […] Sixty minutes after orally administering the test substance or water, a mouse was placed in the experiment device for 5 minutes, and the time (second) was measured during which the mouse explored by approaching each object to be within 1 cm therefrom. […] (However, the state in which a mouse rides on an object is excluded.) The percentages of the times were determined during which two objects were explored in each of the training trial and the retention trial. The percentage (%) of the exploration time for each object was expressed as mean±standard error for each of the groups. […]

[2] = Example 5, FIG. 6, single oral dose 50 nmol/kg body weight 60 min before test

Sequence	amnesia-preventing action (change in spontaneous alternation behavior) [1, 2]	amnesia-preventing action (change in spontaneous alternation behavior) ([1]; Example 7, FIG. 8, single oral dose 150 nmol/kg body weight to 500 nmol/kg body weight (380 to 1,280 μg/kg))	memory-enhancing action (percentage of exploration time for novel object) (memory retention)	amnesia-preventing action (change in spontaneous alternation behavior) ([1]; Example 4, FIG. 5, single oral dose 60 min before test, range 0.05 nmol/kg body weight to 500 nmol/kg body weight (0.1 to 1,000 μg/kg))
NIPPLTQTPVVVPPFLQPEVM [SEQ ID NO: 2]	amnesia-preventing action	–	–	–
SWMHQPHQPLPPTVMFPPQSVL [SEQ ID NO: 3]	–	amnesia-preventing action	–	–
NIPPLTQTPVVVPPFLQPE [SEQ ID NO: 1]	amnesia-preventing action	–	memory-enhancing action	amnesia-preventing action
